Test systems include SR leukemia; HCC-2998 colon; COLO 205 colon; UACC-257 melanoma; MCF7 breast; A549 NSCLC; MALME-3M melanoma; SF-295 CNS; HCT-116 colon; NCI-H226 lung.
What all share (assay): NCI tumour cell line growth inhibition, 48 h

The values that follow come from PubChem BioAssay (NCI).

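Values below derive from 48-hour exposures of cells grown in 96-well plates, with endpoints linearly interpolated between the two concentrations bracketing the appropriate inhibition level. Abbreviation: GI50, concentration required for 50% inhibition of growth. At the TGI there is no net growth.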 A value given as a limit tells only on which side of the number the result lay.

As for `Fc1ccc2[nH]cc(-c3nc(-c4c[nH]c5ncccc45)cs3)c2c1`, the GI50 in the experiment on SR leukemia is 2.79 µM; with HCC-2998 colon, > 100 µM; in the experiment on COLO 205 colon, 1.7 µM; in the experiment on UACC-257 melanoma, > 100 µM; with MCF7 breast, 3.04 µM; in the experiment with A549 NSCLC, 2.65 µM. In addition, the TGI with SR leukemia, with HCC-2998 colon, in the experiment with COLO 205 colon, in the experiment on UACC-257 melanoma, with MCF7 breast and in the experiment on A549 NSCLC was > 100 µM throughout.

Take `O=[N+]([O-])c1nc(-c2ccccn2)[nH]c1[N+](=O)[O-]`: the TGI with SR leukemia, in the experiment on HCC-2998 colon, in the experiment with MALME-3M melanoma, with COLO 205 colon, in the experiment with UACC-257 melanoma and in the experiment on SF-295 CNS was > 100 µM throughout. Further, the TGI in the experiment with HCT-116 colon was 49 µM; in the experiment on A549 NSCLC, > 100 µM; with NCI-H226 lung, > 100 µM.

Regarding `COC1=C2CC(C)CC(OC)C(O)C(C)/C=C(\C)C(OC(N)=O)C(OC)/C=C\C=C(/C)C(=O)NC(=C(C=NC(C)(C)C)C1=O)C2=O` (configuration not stated), the TGI was found to be 16.6 µM in the experiment with HCC-2998 colon; 5.23 µM in the experiment with MALME-3M melanoma; 10.6 µM with COLO 205 colon; 17.8 µM in the experiment with UACC-257 melanoma; 35.7 µM in the experiment on MCF7 breast; 31.7 µM in the experiment with SF-295 CNS. Moreover, the TGI worked out at 16.2 µM with HCT-116 colon, 37.5 µM in the experiment with A549 NSCLC and 13.8 µM in the experiment on NCI-H226 lung.

As to `Nc1ncnc2c1ncn2C1OC(COP(=O)(O)O)C(O)C1O` (configuration not stated), the TGI in the experiment with HCC-2998 colon, in the experiment on MALME-3M melanoma, in the experiment with COLO 205 colon, with UACC-257 melanoma, in the experiment with MCF7 breast and in the experiment on SF-295 CNS was > 50 µM in each case. Also, the TGI in the experiment with HCT-116 colon, in the experiment on A549 NSCLC and in the experiment on NCI-H226 lung was > 50 µM in each case.

For the molecule `O=C1OC(c2ccccc2)=N/C1=C\c1cccnc1`, the TGI with SR leukemia, in the experiment with HCC-2998 colon, in the experiment with UACC-257 melanoma, in the experiment on MCF7 breast, in the experiment with SF-295 CNS and in the experiment with A549 NSCLC was > 100 µM in each case. Moreover, the TGI in the experiment on NCI-H226 lung was > 100 µM.

On to `CCOC(=O)NC(Nc1ncccn1)(C(F)(F)F)C(F)(F)F`, for which the TGI in the experiment on SR leukemia, in the experiment with HCC-2998 colon, in the experiment on MALME-3M melanoma, in the experiment with UACC-257 melanoma, in the experiment on MCF7 breast and with HCT-116 colon was > 100 µM throughout. Further, the TGI in the experiment on NCI-H226 lung was > 100 µM.

`CC(=O)OC1C(C)OC(Oc2c(C)c3c4c(c2O)[C@@H](C)CC[C@@H]4[C@@H](C)C[C@H]3C=C(C)C)C(O)C1O` (some centres not stated): the GI50 is 1.82 µM in the experiment on MALME-3M melanoma, 3.98 µM in the experiment with COLO 205 colon, 5.81 µM in the experiment on MCF7 breast and 10 µM in the experiment with A549 NSCLC. The TGI was 4.19 µM with MALME-3M melanoma, > 100 µM in the experiment with COLO 205 colon, > 100 µM in the experiment with MCF7 breast and > 100 µM in the experiment on A549 NSCLC.

Turning to `N/C(=N\N=C/c1ccccc1O)NO`, the TGI was 25.6 µM in the experiment with HCC-2998 colon; > 84.1 µM with MALME-3M melanoma; > 27.4 µM in the experiment with COLO 205 colon; > 100 µM in the experiment on UACC-257 melanoma; 26.5 µM in the experiment with MCF7 breast; > 34.4 µM with SF-295 CNS. Further, the TGI in the experiment on HCT-116 colon was 47.8 µM; in the experiment on A549 NSCLC, > 100 µM; in the experiment with NCI-H226 lung it was 64.8 µM.

Turning to `CCS(=O)(=O)N1CCC(C(C)n2c(C)c(C(=O)NCc3c(OC)cc(C)[nH]c3=O)c3ccccc32)CC1` (configuration not stated), the GI50 with HCC-2998 colon is > 100 µM; in the experiment on COLO 205 colon, > 100 µM; in the experiment on UACC-257 melanoma it was > 100 µM; in the experiment on MCF7 breast, 25.8 µM; in the experiment on SF-295 CNS, > 100 µM; in the experiment on A549 NSCLC it was > 100 µM. Besides, the GI50 with NCI-H226 lung is > 100 µM. Besides, the TGI in the experiment with HCC-2998 colon, in the experiment with COLO 205 colon, with UACC-257 melanoma, in the experiment with MCF7 breast, with SF-295 CNS and with A549 NSCLC was > 100 µM throughout. In addition, the TGI with NCI-H226 lung was > 100 µM.

In the case of `O=C1OC[C@@H]2[C@@H](O)CCCCCN12`, the TGI with SR leukemia, with HCC-2998 colon, in the experiment on COLO 205 colon, with UACC-257 melanoma, in the experiment on MCF7 breast and with SF-295 CNS was > 100 µM in each case. For the same molecule, the TGI with HCT-116 colon, in the experiment on A549 NSCLC and in the experiment on NCI-H226 lung was > 100 µM in each case.

Turning to `COc1cc2c(cc1OC)-c1cc3ccccc3c[n+]1CC2`, the TGI with SR leukemia was > 100 µM; with HCC-2998 colon, > 100 µM; in the experiment on MALME-3M melanoma, 54.3 µM; in the experiment with COLO 205 colon, > 100 µM; in the experiment with UACC-257 melanoma, > 100 µM; with MCF7 breast, > 100 µM. Moreover, the TGI with SF-295 CNS, in the experiment on HCT-116 colon, in the experiment with A549 NSCLC and in the experiment on NCI-H226 lung was > 100 µM each time.

Regarding `CC1(C)CC23C4COC(=O)C2CCC1C3CC4=O` (configuration not stated), the TGI was 37.2 µM with HCC-2998 colon; 23.3 µM in the experiment with MALME-3M melanoma; 33.6 µM with COLO 205 colon; 26.3 µM in the experiment on UACC-257 melanoma; 47.9 µM with MCF7 breast; 53.5 µM with SF-295 CNS. Also, the TGI in the experiment on HCT-116 colon was 21.9 µM; in the experiment on A549 NSCLC, 70.3 µM; with NCI-H226 lung it was 20.6 µM.
